According to the NIST ThermoML archive (doi:10.1021/je500153g):
± gives the expanded uncertainty stated by the source.

Experiment: xn = mol fraction of the nth substance listed
Details: 101 kPa, Liquid; for viscosity: Concentric cylinders viscometry; for mass density: Vibrating tube method

O=S1(=O)CCCC1 [sulfolane] + CCC(C)O
Details	mass density, 303.15 K [kg/m3]	mass density, 313.15 K [kg/m3]	mass density, 323.15 K [kg/m3]	mass density, 333.15 K [kg/m3]	mass density, 343.15 K [kg/m3]	viscosity, 303.15 K [mPa·s]	viscosity, 313.15 K [mPa·s]	viscosity, 323.15 K [mPa·s]	viscosity, 333.15 K [mPa·s]	viscosity, 343.15 K [mPa·s]
x1 = 0.099	846.6 ± 0.6	837.8 ± 0.6	828.8 ± 0.6	819.3 ± 0.6	809.4 ± 0.6	2.16 ± 0.02	1.62 ± 0.01	1.26 ± 0.01	1 ± 0.01	0.8 ± 0.01
x1 = 0.198	894.1 ± 0.6	885.2 ± 0.6	876 ± 0.6	866.7 ± 0.6	857 ± 0.6	2.17 ± 0.02	1.67 ± 0.02	1.33 ± 0.01	1.08 ± 0.01	0.89 ± 0.01
x1 = 0.298	941.7 ± 0.6	932.9 ± 0.6	923.8 ± 0.6	914.6 ± 0.6	905 ± 0.6	2.34 ± 0.02	1.83 ± 0.02	1.49 ± 0.01	1.21 ± 0.01	1.01 ± 0.01
x1 = 0.38	980.6 ± 0.6	971.7 ± 0.6	962.6 ± 0.6	953.3 ± 0.6	943.9 ± 0.6	2.56 ± 0.02	2.01 ± 0.02	1.63 ± 0.02	1.35 ± 0.01	1.14 ± 0.01
x1 = 0.499	1036.4 ± 0.6	1027.5 ± 0.6	1018.4 ± 0.6	1009.3 ± 0.6	1000 ± 0.6	2.98 ± 0.03	2.37 ± 0.02	1.93 ± 0.02	1.61 ± 0.02	1.37 ± 0.01
x1 = 0.593	1079.6 ± 0.6	1070.7 ± 0.6	1061.8 ± 0.6	1052.7 ± 0.6	1043.5 ± 0.6	3.46 ± 0.03	2.77 ± 0.02	2.27 ± 0.02	1.89 ± 0.02	1.62 ± 0.02
x1 = 0.691	1125.1 ± 0.7	1116.2 ± 0.7	1107.2 ± 0.7	1098.2 ± 0.6	1089.2 ± 0.6	4.19 ± 0.04	3.36 ± 0.03	2.76 ± 0.02	2.31 ± 0.02	1.97 ± 0.02
x1 = 0.799	1173.9 ± 0.7	1165.1 ± 0.7	1156.2 ± 0.7	1147.4 ± 0.7	1138.5 ± 0.7	5.41 ± 0.05	4.32 ± 0.04	3.53 ± 0.03	2.94 ± 0.03	2.49 ± 0.02
x1 = 0.9	1219 ± 0.7	1210.1 ± 0.7	1201.4 ± 0.7	1192.5 ± 0.7	1183.7 ± 0.7	7.23 ± 0.07	5.72 ± 0.05	4.63 ± 0.04	3.82 ± 0.03	3.21 ± 0.03
x1 = 1	1262.9 ± 0.6	1254.1 ± 0.6	1245.2 ± 0.6	1236.6 ± 0.6	1228.1 ± 0.6	10.4 ± 0.1	8.07 ± 0.07	6.45 ± 0.06	5.22 ± 0.05	4.32 ± 0.04

OCCOCCOCCO [triethylene glycol] + O=S1(=O)CCCC1
Details	mass density, 303.15 K [kg/m3]	mass density, 313.15 K [kg/m3]	mass density, 323.15 K [kg/m3]	mass density, 333.15 K [kg/m3]	mass density, 343.15 K [kg/m3]	viscosity, 303.15 K [mPa·s]	viscosity, 313.15 K [mPa·s]	viscosity, 323.15 K [mPa·s]	viscosity, 333.15 K [mPa·s]	viscosity, 343.15 K [mPa·s]
x2 = 0	1116.5 ± 0.5	1108.9 ± 0.5	1101.1 ± 0.5	1093.4 ± 0.5	1085.5 ± 0.5	29.5 ± 0.3	19.3 ± 0.2	13.3 ± 0.1	9.58 ± 0.08	7.16 ± 0.06
x2 = 0.123	1130.3 ± 0.5	1122.4 ± 0.5	1114.6 ± 0.5	1106.6 ± 0.5	1098.5 ± 0.5	25.6 ± 0.2	16.9 ± 0.2	11.8 ± 0.1	8.6 ± 0.07	6.49 ± 0.06
x2 = 0.268	1147.6 ± 0.5	1139.5 ± 0.5	1131.5 ± 0.5	1123.3 ± 0.5	1115 ± 0.5	21.2 ± 0.2	14.3 ± 0.1	10.1 ± 0.1	7.49 ± 0.06	5.74 ± 0.05
x2 = 0.505	1178.8 ± 0.5	1170.5 ± 0.5	1161.9 ± 0.5	1153.4 ± 0.5	1145 ± 0.5	15.6 ± 0.1	10.9 ± 0.1	8 ± 0.07	6.09 ± 0.05	4.78 ± 0.04
x2 = 0.598	1192.2 ± 0.6	1183.7 ± 0.6	1175.1 ± 0.5	1166.6 ± 0.5	1158 ± 0.5	13.9 ± 0.1	9.9 ± 0.08	7.36 ± 0.06	5.67 ± 0.05	4.49 ± 0.04
x2 = 0.678	1204.5 ± 0.6	1196 ± 0.6	1187.5 ± 0.6	1178.8 ± 0.6	1170.1 ± 0.5	12.6 ± 0.1	9.13 ± 0.08	6.88 ± 0.06	5.36 ± 0.05	4.29 ± 0.04
x2 = 0.768	1219 ± 0.6	1210.3 ± 0.6	1201.5 ± 0.6	1192.9 ± 0.6	1184.3 ± 0.6	11.4 ± 0.1	8.4 ± 0.07	6.43 ± 0.06	5.09 ± 0.04	4.12 ± 0.04
x2 = 0.837	1231.3 ± 0.6	1222.6 ± 0.6	1213.9 ± 0.6	1205.2 ± 0.6	1196.4 ± 0.6	10.8 ± 0.1	8.11 ± 0.07	6.29 ± 0.05	5.01 ± 0.04	4.1 ± 0.04
x2 = 0.929	1248.8 ± 0.6	1240 ± 0.6	1231.2 ± 0.6	1222.4 ± 0.6	1213.7 ± 0.6	10.3 ± 0.1	7.89 ± 0.07	6.22 ± 0.05	5.02 ± 0.04	4.13 ± 0.04
